# Experimental data as given in patent US10710978B2, “STK4 inhibitors for treatment of hematologic malignancies” (Dana-Farber Cancer Institute, Inc., priority 2015, dated 2020).
# Like-named read-outs stand apart in the source and are kept apart here.
# Key:
# Assay in all cases: KiNativ assay
# Format in all cases: binding
# [1] = target: MAP3K1 (Homo sapiens (Human), UniProt Q13233); conditions: H929 live cell
# Method: (§1) Biochemical IC50s of the compounds of the present disclosure against various kinases were measured in a KiNativ assay. Compounds were screened in duplicate at 10 μM in H929 live cell. IC50 was measured via Mass spectroscopy (MS).
# [2] = target: NuaK2 (Homo sapiens (Human), UniProt Q9H093); conditions: H929 live cell
# Method: as §1
# [3] = target: MSK2 domain1 (Homo sapiens (Human), UniProt O75676); conditions: H929 live cell
# Method: as §1
# [4] = target: PKCi (Homo sapiens (Human), UniProt P41743); conditions: H929 live cell
# Method: as §1
# [5] = system: AMPKa1, AMPKa2; conditions: H929 live cell
# Method: as §1
# [6] = target: BRAF (Homo sapiens (Human), UniProt P15056); conditions: H929 live cell
# Method: as §1
# [7] = target: MST2 (Homo sapiens (Human), UniProt Q13188); conditions: H929 live cell
# Method: as §1
# [8] = target: PKD2 (Homo sapiens (Human), UniProt Q9BZL6); conditions: H929 live cell
# Method: as §1
# [9] = target: RSK1 domain2 (Homo sapiens (Human), UniProt Q15418); conditions: H929 live cell
# Method: as §1
# [10] = target: STLK6 (Homo sapiens (Human), UniProt Q9C0K7); conditions: H929 live cell
# Method: as §1
# [11] = target: SLK (Homo sapiens (Human), UniProt Q9H2G2); conditions: H929 live cell
# Method: as §1
# [12] = target: MAST3 (Homo sapiens (Human), UniProt O60307); conditions: H929 live cell
# Method: as §1
# [13] = target: LYN (Homo sapiens (Human), UniProt P07948); conditions: H929 live cell
# Method: as §1
# [14] = system: CDK11, CDK8; conditions: H929 live cell
# Method: as §1
# [15] = target: MAP3K2 (Homo sapiens (Human), UniProt Q9Y2U5); conditions: H929 live cell
# Method: as §1
# [16] = target: GCN2 domain2 (Homo sapiens (Human), UniProt Q9P2K8); conditions: H929 live cell
# Method: as §1
# [17] = target: AKT1 (Homo sapiens (Human), UniProt P31749); conditions: H929 live cell
# Method: as §1
# [18] = system: PI4KA, PI4KAP2; conditions: H929 live cell
# Method: as §1
# [19] = target: NEK7 (Homo sapiens (Human), UniProt Q8TDX7); conditions: H929 live cell
# Method: as §1
# [20] = system: MAP2K1, MAP2K2; conditions: 10 μM, H929 live cell; range class
# Method: as §1
# [21] = target: p38a (Homo sapiens (Human), UniProt Q16539); conditions: H929 live cell, range class, read-out: % inhibition
# Method: as §1
# [22] = system: ABL, ARG; conditions: H929 live cell
# Method: as §1
# [23] = target: MAP2K1 (Homo sapiens (Human), UniProt Q02750); conditions: H929 live cell
# Method: as §1
# [24] = target: PKR (Homo sapiens (Human), UniProt P19525); conditions: H929 live cell
# Method: as §1
# [25] = target: p70S6Kb (Homo sapiens (Human), UniProt Q9UBS0); conditions: H929 live cell
# Method: as §1
# [26] = target: MLKL (Homo sapiens (Human), UniProt Q8NB16); conditions: H929 live cell
# Method: as §1
# [27] = target: AurB (Homo sapiens (Human), UniProt Q96GD4); conditions: H929 live cell
# Method: as §1
# [28] = target: MLK3 (Homo sapiens (Human), UniProt Q16584); conditions: H929 live cell
# Method: as §1
# [29] = target: CK1g3 (Homo sapiens (Human), UniProt Q9Y6M4); conditions: H929 live cell
# Method: as §1
# [30] = target: IRAK4 (Homo sapiens (Human), UniProt Q9NWZ3); conditions: H929 live cell
# Method: as §1
# [31] = target: CDK7 (Homo sapiens (Human), UniProt P50613); conditions: H929 live cell
# Method: as §1
# [32] = system: KSR1, KSR2; conditions: H929 live cell
# Method: as §1
# [33] = target: PAN3 (Homo sapiens (Human), UniProt Q58A45); conditions: H929 live cell
# Method: as §1
# [34] = target: IKKa (Homo sapiens (Human), UniProt O15111); conditions: H929 live cell
# Method: as §1
# [35] = range class, read-out: % inhibition
# Sequence of IRAK4 (Q9NWZ3 whole entry): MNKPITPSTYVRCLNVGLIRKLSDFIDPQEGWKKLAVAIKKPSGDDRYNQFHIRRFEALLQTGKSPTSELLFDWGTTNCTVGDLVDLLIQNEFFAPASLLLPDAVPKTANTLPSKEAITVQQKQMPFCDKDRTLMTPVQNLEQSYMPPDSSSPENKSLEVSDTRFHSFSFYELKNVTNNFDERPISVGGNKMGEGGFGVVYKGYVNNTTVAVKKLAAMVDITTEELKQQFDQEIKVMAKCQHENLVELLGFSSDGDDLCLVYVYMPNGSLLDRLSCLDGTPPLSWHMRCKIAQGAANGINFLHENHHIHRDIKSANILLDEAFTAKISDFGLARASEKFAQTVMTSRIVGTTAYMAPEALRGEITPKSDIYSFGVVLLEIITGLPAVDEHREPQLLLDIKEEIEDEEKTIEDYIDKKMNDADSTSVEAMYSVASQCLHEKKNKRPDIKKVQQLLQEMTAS
# Sequence of RSK1 domain2 (Q15418 whole entry, the tested form may be a part): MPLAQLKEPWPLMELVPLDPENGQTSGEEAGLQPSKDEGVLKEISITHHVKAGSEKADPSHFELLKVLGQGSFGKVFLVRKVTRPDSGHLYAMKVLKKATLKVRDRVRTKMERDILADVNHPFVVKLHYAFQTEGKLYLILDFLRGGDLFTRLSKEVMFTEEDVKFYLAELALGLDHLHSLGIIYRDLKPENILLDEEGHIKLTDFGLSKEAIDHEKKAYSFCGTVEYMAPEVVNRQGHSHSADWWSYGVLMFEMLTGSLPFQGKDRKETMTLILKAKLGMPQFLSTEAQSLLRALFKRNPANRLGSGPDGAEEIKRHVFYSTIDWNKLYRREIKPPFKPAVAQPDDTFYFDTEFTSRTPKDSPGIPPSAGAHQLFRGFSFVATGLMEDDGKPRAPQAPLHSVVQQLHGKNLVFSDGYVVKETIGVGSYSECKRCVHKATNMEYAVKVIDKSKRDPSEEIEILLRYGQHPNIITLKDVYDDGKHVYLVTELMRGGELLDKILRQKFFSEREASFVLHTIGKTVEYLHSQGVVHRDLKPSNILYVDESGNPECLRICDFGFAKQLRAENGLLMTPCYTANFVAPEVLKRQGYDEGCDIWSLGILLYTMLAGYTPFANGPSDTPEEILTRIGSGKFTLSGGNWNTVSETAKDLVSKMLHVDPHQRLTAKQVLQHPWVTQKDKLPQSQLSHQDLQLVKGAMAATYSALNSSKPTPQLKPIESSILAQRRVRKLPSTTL
# Sequence of NEK7 (Q8TDX7 whole entry): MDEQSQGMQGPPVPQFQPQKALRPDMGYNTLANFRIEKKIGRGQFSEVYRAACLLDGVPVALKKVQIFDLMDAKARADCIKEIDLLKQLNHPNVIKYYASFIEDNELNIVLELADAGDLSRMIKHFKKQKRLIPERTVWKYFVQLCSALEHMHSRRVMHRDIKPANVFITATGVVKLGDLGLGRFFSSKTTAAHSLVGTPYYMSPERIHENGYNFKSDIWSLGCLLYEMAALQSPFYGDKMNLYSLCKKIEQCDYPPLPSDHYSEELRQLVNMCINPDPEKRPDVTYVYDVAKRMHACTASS
# Sequence of MAP3K2 (Q9Y2U5 whole entry): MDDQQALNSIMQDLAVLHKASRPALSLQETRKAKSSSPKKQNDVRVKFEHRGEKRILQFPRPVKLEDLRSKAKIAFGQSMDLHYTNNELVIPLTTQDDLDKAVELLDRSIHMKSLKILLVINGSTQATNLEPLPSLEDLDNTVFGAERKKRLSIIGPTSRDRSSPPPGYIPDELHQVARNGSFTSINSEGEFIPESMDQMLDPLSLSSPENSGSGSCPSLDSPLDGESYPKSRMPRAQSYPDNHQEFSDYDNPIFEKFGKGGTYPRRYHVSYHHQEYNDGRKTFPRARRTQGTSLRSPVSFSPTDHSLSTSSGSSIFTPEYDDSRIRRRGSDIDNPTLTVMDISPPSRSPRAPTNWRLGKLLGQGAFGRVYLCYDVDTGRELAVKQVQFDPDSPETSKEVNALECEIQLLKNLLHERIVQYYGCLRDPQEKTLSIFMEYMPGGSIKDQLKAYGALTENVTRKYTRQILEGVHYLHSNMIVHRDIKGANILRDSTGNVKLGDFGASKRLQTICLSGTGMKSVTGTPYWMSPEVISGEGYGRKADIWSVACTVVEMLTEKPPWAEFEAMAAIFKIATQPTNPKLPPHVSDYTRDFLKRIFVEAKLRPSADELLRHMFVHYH
# Sequence of MAP2K1 (Q02750 whole entry): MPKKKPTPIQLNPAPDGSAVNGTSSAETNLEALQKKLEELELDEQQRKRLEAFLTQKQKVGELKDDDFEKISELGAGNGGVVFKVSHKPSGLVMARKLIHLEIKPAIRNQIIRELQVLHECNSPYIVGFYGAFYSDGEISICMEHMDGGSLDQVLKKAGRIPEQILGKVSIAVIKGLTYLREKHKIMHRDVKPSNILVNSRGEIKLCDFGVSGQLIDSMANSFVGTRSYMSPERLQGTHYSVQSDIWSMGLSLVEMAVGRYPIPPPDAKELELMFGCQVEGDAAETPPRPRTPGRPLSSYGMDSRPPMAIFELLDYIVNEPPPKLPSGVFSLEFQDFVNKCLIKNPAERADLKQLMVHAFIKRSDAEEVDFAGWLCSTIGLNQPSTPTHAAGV
# Sequence of SLK (Q9H2G2 whole entry): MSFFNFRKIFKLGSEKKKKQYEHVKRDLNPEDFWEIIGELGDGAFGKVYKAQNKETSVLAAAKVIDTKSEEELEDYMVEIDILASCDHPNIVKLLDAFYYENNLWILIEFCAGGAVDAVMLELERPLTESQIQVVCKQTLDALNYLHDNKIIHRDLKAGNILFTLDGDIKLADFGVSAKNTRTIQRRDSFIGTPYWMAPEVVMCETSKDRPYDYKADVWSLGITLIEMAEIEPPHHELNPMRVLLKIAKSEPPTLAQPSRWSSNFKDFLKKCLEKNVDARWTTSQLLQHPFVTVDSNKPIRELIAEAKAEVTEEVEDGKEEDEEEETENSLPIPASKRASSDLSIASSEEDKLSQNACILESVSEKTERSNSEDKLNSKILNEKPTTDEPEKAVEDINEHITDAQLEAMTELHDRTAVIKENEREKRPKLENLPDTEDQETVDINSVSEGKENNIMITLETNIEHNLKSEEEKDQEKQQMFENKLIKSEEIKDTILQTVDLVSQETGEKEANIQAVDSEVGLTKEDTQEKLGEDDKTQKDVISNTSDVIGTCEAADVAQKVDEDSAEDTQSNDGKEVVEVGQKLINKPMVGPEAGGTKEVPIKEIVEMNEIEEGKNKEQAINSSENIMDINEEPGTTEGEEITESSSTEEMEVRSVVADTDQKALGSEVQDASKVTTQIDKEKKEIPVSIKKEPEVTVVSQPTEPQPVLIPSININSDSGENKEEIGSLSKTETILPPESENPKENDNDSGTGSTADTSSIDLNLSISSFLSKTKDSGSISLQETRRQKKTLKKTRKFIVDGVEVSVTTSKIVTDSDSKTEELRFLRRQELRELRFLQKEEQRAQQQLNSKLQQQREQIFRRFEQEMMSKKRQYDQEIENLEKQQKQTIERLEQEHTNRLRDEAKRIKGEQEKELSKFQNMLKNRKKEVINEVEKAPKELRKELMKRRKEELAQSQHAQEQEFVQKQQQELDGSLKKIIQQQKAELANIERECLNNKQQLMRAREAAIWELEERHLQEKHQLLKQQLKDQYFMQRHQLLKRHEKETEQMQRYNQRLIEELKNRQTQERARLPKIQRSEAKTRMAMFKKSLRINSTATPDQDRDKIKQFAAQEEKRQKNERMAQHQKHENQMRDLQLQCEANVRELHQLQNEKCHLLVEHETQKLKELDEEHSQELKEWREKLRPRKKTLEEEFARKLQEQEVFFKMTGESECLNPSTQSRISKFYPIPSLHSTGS
# Sequence of PAN3 (Q58A45 whole entry): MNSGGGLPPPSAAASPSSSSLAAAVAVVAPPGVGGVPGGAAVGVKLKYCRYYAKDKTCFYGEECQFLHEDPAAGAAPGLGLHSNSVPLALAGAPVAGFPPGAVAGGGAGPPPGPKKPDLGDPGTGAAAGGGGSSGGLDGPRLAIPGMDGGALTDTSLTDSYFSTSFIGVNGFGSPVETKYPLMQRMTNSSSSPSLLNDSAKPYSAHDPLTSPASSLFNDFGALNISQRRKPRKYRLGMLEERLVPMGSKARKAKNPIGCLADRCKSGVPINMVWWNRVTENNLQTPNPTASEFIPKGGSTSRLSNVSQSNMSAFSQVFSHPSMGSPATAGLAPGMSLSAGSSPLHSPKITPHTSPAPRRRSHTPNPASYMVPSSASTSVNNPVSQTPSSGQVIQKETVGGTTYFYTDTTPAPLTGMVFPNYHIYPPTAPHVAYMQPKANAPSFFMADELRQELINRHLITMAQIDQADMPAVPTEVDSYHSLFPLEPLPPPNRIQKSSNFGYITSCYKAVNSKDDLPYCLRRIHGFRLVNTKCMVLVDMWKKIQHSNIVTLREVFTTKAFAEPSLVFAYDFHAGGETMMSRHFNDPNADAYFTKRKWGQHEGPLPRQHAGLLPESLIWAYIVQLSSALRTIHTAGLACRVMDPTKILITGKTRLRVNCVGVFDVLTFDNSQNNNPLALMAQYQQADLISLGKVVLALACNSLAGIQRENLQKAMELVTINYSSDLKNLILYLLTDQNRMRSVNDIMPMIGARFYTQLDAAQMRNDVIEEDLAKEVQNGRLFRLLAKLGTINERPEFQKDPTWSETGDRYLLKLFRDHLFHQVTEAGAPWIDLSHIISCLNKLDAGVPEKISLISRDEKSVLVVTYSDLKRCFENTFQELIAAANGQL
# Sequence of STLK6 (Q9C0K7 whole entry): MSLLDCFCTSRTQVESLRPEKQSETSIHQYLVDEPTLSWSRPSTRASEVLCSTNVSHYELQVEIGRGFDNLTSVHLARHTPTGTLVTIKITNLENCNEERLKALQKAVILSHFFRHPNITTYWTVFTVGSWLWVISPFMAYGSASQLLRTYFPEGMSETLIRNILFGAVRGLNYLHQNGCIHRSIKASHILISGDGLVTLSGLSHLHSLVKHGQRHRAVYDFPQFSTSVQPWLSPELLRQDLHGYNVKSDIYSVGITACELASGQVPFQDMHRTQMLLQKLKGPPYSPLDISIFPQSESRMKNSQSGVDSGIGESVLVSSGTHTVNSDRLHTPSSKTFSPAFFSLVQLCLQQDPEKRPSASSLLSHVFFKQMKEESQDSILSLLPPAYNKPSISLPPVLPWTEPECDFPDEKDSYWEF
smiles,measurement,setting,value
"Nc1ncc(-c2ccc(NS(=O)(=O)C3CC3)cc2F)cc1-c1ccc2c(c1)CCNC2=O [Compound I-51, N-(4-(6-amino-5-(1-oxo-1,2,3,4-tetrahydroisoquinolin-6-yl)pyridin-3-yl)-3-fluorophenyl) cyclopropanesulfonamide]",inhibition at 10 µM,[1]; [35],> 90%
same,inhibition at 10 µM,[1]; read-out: inhibition (10 μM),95.8%
same,inhibition at 10 µM,[2]; [35],35 to 40%
same,inhibition at 10 µM,[2]; read-out: inhibition (10 μM),45.1%
same,inhibition at 10 µM,[3]; [35],0%
same,inhibition at 10 µM,[3]; read-out: inhibition (10 μM),-8%
same,inhibition at 10 µM,[4]; [35],0%
same,inhibition at 10 µM,[4]; read-out: inhibition (10 μM),-49.1%
same,% inhibition,"[5]; 10 μM, range class",0.0%
same,inhibition (10 μM),[5],−20.5%
same,inhibition at 10 µM,[6]; [35],0%
same,inhibition at 10 µM,[6]; read-out: inhibition (10 μM),-41.8%
same,inhibition at 10 µM,[7]; [35],> 90%
same,inhibition at 10 µM,[7]; read-out: inhibition (10 μM),95.3%
same,inhibition at 10 µM,[8]; [35],50 to 75%
same,inhibition at 10 µM,[8]; read-out: inhibition (10 μM),73.2%
same,inhibition at 10 µM,[9]; [35],0%
same,inhibition at 10 µM,[9]; read-out: inhibition (10 μM),11%
same,inhibition at 10 µM,[10]; [35],0%
same,inhibition at 10 µM,[10]; read-out: inhibition (10 μM),-15%
same,inhibition at 10 µM,[11]; [35],75 to 90%
same,inhibition at 10 µM,[11]; read-out: inhibition (10 μM),85.6%
same,inhibition at 10 µM,[12]; [35],0%
same,inhibition at 10 µM,[12]; read-out: inhibition (10 μM),7%
same,inhibition at 10 µM,[13]; [35],0%
same,inhibition at 10 µM,[13]; read-out: inhibition (10 μM),-21.9%
same,% inhibition,"[14]; 10 μM, range class",0.0%
same,inhibition (10 μM),[14],31.8%
same,inhibition at 10 µM,[15]; [35],0%
same,inhibition at 10 µM,[15]; read-out: inhibition (10 μM),-11.2%
same,inhibition at 10 µM,[16]; [35],0%
same,inhibition at 10 µM,[16]; read-out: inhibition (10 μM),-5.1%
same,inhibition at 10 µM,[17]; [35],0%
same,inhibition at 10 µM,[17]; read-out: inhibition (10 μM),-15.2%
same,% inhibition,"[18]; 10 μM, range class",0.0%
same,inhibition (10 μM),[18],0.1%
same,inhibition at 10 µM,[19]; [35],0%
same,inhibition at 10 µM,[19]; read-out: inhibition (10 μM),-50.3%
same,% inhibition,[20],0.0%
same,inhibition at 10 µM,[21],0%
same,% inhibition,"[22]; 10 μM, range class",0.0%
same,inhibition (10 μM),[22],−3.0%
same,inhibition at 10 µM,[23]; [35],0%
same,inhibition at 10 µM,[23]; read-out: inhibition (10 μM),-26.2%
same,inhibition at 10 µM,[24]; [35],0%
same,inhibition at 10 µM,[24]; read-out: inhibition (10 μM),3.8%
same,inhibition at 10 µM,[25]; [35],0%
same,inhibition at 10 µM,[25]; read-out: inhibition (10 μM),5.5%
same,inhibition at 10 µM,[26]; [35],50 to 75%
same,inhibition at 10 µM,[26]; read-out: inhibition (10 μM),51.4%
same,inhibition at 10 µM,[27]; [35],0%
same,inhibition at 10 µM,[27]; read-out: inhibition (10 μM),31.8%
same,inhibition at 10 µM,[28]; [35],35 to 40%
same,inhibition at 10 µM,[28]; read-out: inhibition (10 μM),42.3%
same,inhibition at 10 µM,[29]; [35],75 to 90%
same,inhibition at 10 µM,[29]; read-out: inhibition (10 μM),88.2%
same,inhibition at 10 µM,[30]; [35],0%
same,inhibition at 10 µM,[30]; read-out: inhibition (10 μM),16.4%
same,inhibition at 10 µM,[31]; [35],0%
same,inhibition at 10 µM,[31]; read-out: inhibition (10 μM),17.4%
same,% inhibition,"[32]; 10 μM, range class",0.0%
same,inhibition (10 μM),[32],−5.2%
same,inhibition at 10 µM,[33]; [35],0%
same,inhibition at 10 µM,[33]; read-out: inhibition (10 μM),-39.1%
same,inhibition at 10 µM,[34]; [35],0%
same,inhibition at 10 µM,[34]; read-out: inhibition (10 μM),-17.3%
